Source: ChEMBL document CHEMBL4002618, “Anticomplement triterpenoids from the roots of Ilex asprella” (2017)
Active and inactive are the calls of the source. The calls are words filed in the database; no cut-off is given here.

Tests used:
Erythrocyte [1] = assay: Anticomplement activity in sheep erythrocytes assessed as concentration required for 50% hemolytic inhibition by classic pathway preincubated for 10 mins with guinea pig serum followed by erythrocyte addition measured after 30 mins by spectrophotometer; format: functional, Ovis aries
Erythrocyte [2] = assay: Anticomplement activity in New Zealand White rabbit erythrocytes assessed as concentration required for 50% hemolytic inhibition by alternative pathway preincubated for 10 mins with normal human serum followed by erythrocyte addition measured after 30 mins by spectrophotometer; format: functional, Oryctolagus cuniculus
Erythrocyte [3] = assay: Anticomplement activity in sheep erythrocytes assessed as inhibition of hemolysis by classical pathway by measuring hemolysis after 30 mins of compound treatment in normal human serum with C3-depleted sera relative to control; format: functional, Ovis aries; set-up: scale not given: the % may be the effect or the level left
Erythrocyte [4] = assay: Anticomplement activity in sheep erythrocytes assessed as inhibition of hemolysis by classical pathway by measuring hemolysis after 30 mins of compound treatment in normal human serum with C4-depleted sera relative to control; format: functional, Ovis aries; set-up: scale not given: the % may be the effect or the level left
Erythrocyte [5] = assay: Anticomplement activity in sheep erythrocytes assessed as inhibition of hemolysis by classical pathway by measuring hemolysis after 30 mins of compound treatment in normal human serum with C9-depleted sera relative to control; format: functional, Ovis aries; set-up: scale not given: the % may be the effect or the level left
Erythrocyte [6] = assay: Anticomplement activity in sheep erythrocytes assessed as inhibition of hemolysis by classical pathway after 30 mins of compound treatment in normal human serum with C1q-depleted sera; format: functional, cell-based; settings: Ovis aries
Erythrocyte [7] = assay: Anticomplement activity in sheep erythrocytes assessed as inhibition of hemolysis by classical pathway after 30 mins of compound treatment in normal human serum with C2-depleted sera; format: functional, cell-based; settings: Ovis aries
Erythrocyte [8] = assay: Anticomplement activity in sheep erythrocytes assessed as inhibition of hemolysis by classical pathway after 30 mins of compound treatment in normal human serum with C5-depleted sera; format: functional, cell-based; settings: Ovis aries

| Compound | Activity (Erythrocyte [1]) [mg/mL] | Activity (Erythrocyte [2]) [mg/mL] | Activity (Erythrocyte [1]; Ovis aries) | Activity (Erythrocyte [2]; Oryctolagus cuniculus) | further results |
| --- | --- | --- | --- | --- | --- |
| C[C@H]1[C@H](C)CC[C@]2(C(=O)O)CC[C@]3(C)C(=CC[C@@H]4[C@@]5(C)CC[C@H](O)C(C)(C)[C@@H]5CC[C@]43C)[C@H]12 [URSOLIC ACID] | 0.278 | 0.493 | – | – | – |
| C=C1[C@@H](O)[C@H](O)C[C@]2(C)[C@H]3C=C[C@]45OC(=O)[C@@]6(CC[C@@H](C)[C@H](C)[C@H]64)CC[C@@]5(C)[C@]3(C)CC[C@@H]12 [ILEKUDINOL A] | 0.248 | 0.658 | – | – | – |
| CC1(C)CC[C@]2(C(=O)O)CC[C@]3(C)C(=CC[C@@H]4[C@@]5(C)CC[C@H](O[C@@H]6OC[C@H](O)[C@H](O)[C@H]6O)C(C)(C)[C@@H]5CC[C@]43C)[C@@H]2[C@@H]1O | – | – | inactive | inactive | – |
| C[C@H]1[C@H](C)CC[C@]2(C(=O)O)CC[C@]3(C)C(=CC[C@@H]4[C@@]5(C)CC[C@H](O)[C@@](C)(CO)[C@@H]5CC[C@]43C)[C@H]12 | 0.161 | 0.678 | – | – | – |
| COC(=O)[C@H]1O[C@@H](O[C@H]2CC[C@]3(C)[C@H]4CC=C5[C@@H]6[C@H](O)C(C)(C)CC[C@]6(C(=O)O)CC[C@@]5(C)[C@]4(C)CC[C@H]3C2(C)C)[C@H](O)[C@@H](O)[C@@H]1O | – | – | inactive | inactive | – |
| COC(=O)[C@]12CCC(C)(C)C[C@H]1C1=CC[C@@H]3[C@@]4(C)CC[C@H](O)C(C)(C)[C@@H]4CC[C@@]3(C)[C@]1(COC(=O)/C=C/c1ccc(O)c(O)c1)CC2 | 0.063 | 0.089 | – | – | Activity (Erythrocyte [3]): <18.3%; Activity (Erythrocyte [4]): <18.3%; Activity (Erythrocyte [5]): <18.3%; Activity (Erythrocyte [6]): inactive; Activity (Erythrocyte [7]): inactive; Activity (Erythrocyte [8]): inactive |
| C=C1CC[C@@]23CC[C@]4(C)[C@@](OC2=O)([C@@H]3[C@H]1C)[C@H]1O[C@H]1[C@@H]1[C@@]2(C)C=C(O)C(=O)C(C)=C2[C@H](O)C[C@]14C | 0.236 | 0.656 | – | – | – |
| COC(=O)[C@H]1O[C@@H](O[C@H]2CC[C@]3(C)[C@H]4CC=C5[C@H]6[C@](C(=O)O)(CC[C@@H](C)[C@@]6(C)O)CC[C@@]5(C)[C@]4(C)CC[C@H]3C2(C)C)[C@H](O)[C@@H](O)[C@@H]1O | – | – | inactive | inactive | – |
| C[C@H]1[C@H](C)CC[C@]2(C(=O)O)CC[C@]3(C)C(=CC[C@@H]4[C@@]5(C)C[C@H](O)[C@H](O)[C@@](C)(CO)[C@@H]5CC[C@]43C)[C@H]12 | 0.197 | 0.212 | – | – | – |
| CC(=O)O[C@H]1[C@H](O[C@H]2CC[C@]3(C)[C@H]4CC=C5[C@H]6[C@](C(=O)O[C@@H]7O[C@H](CO)[C@@H](O)[C@H](O)[C@H]7O)(CC[C@@H](C)[C@@]6(C)O)CC[C@@]5(C)[C@]4(C)CC[C@H]3C2(C)C)OC[C@H](O)[C@@H]1O | – | – | inactive | inactive | – |
| COC(=O)[C@]12CCC(C)(C)C[C@H]1C1=CC[C@@H]3[C@@]4(C)CC[C@H](O)C(C)(C)[C@@H]4CC[C@@]3(C)[C@]1(COC(=O)/C=C/c1ccc(O)cc1)CC2 | 0.094 | 0.444 | – | – | Activity (Erythrocyte [3]): <18.3%; Activity (Erythrocyte [4]): <18.3%; Activity (Erythrocyte [5]): <18.3%; Activity (Erythrocyte [6]): inactive; Activity (Erythrocyte [7]): inactive; Activity (Erythrocyte [8]): inactive |
| COC(=O)[C@H]1O[C@@H](O[C@H]2CC[C@@]3(C)[C@@H](CC[C@]4(C)[C@@H]3CC=C3[C@H]5[C@](C(=O)O)(CC[C@@H](C)[C@@]5(C)O)CC[C@]34C)[C@]2(C)CO)[C@H](O)[C@@H](O)[C@@H]1O | – | – | inactive | inactive | – |
| C[C@@H]1CC[C@]2(C(=O)O)CC[C@]3(C)C(=CC[C@@H]4[C@@]5(C)CC[C@H](O)[C@@](C)(CO)[C@@H]5CC[C@]43C)[C@@H]2[C@]1(C)O [ROTUNDIC ACID] | 0.19 | 0.341 | – | – | – |
| C[C@@H]1CC[C@]2(C(=O)O)CC[C@]3(C)C(=CC[C@@H]4[C@@]5(C)CC[C@H](O[C@@H]6OC[C@H](O)[C@H](O)[C@H]6O)C(C)(C)[C@@H]5CC[C@]43C)[C@@H]2[C@]1(C)O | – | – | inactive | inactive | – |
| C=C1[C@@H](O)[C@H](O)C[C@]2(C)[C@H]3[C@@H]4O[C@@H]4[C@]45OC(=O)[C@@]6(CCC(C)(C)C[C@H]64)CC[C@@]5(C)[C@]3(C)CC[C@@H]12 | 0.357 | 0.781 | – | – | – |
| CC1=C2[C@H](O)C[C@]3(C)[C@H]([C@@H]4O[C@@H]4[C@]45OC(=O)[C@@]6(CCC(C)(C)C[C@H]64)CC[C@]53C)[C@@]2(C)C=C(O)C1=O | 0.38 | 0.944 | – | – | – |

| Compound | Activity (Erythrocyte [1]) [mg/mL] | Activity (Erythrocyte [2]) [mg/mL] | Activity (Erythrocyte [1]; Ovis aries) | Activity (Erythrocyte [2]; Oryctolagus cuniculus) | further results |
| --- | --- | --- | --- | --- | --- |
| CC1=C2[C@H](O)C[C@]3(C)[C@H]([C@@H]4O[C@@H]4[C@]45OC(=O)[C@@]6(CC[C@@H](C)[C@H](C)[C@H]64)CC[C@]53C)[C@@]2(C)C=C(O)C1=O | 0.505 | 0.774 | – | – | – |
| C[C@@H]1CC[C@]2(C(=O)O[C@@H]3O[C@H](CO)[C@@H](O)[C@H](O)[C@H]3O)CC[C@]3(C)C(=CC[C@@H]4[C@@]5(C)CC[C@H](O)C(C)(C)[C@@H]5CC[C@]43C)[C@@H]2[C@]1(C)O | – | – | inactive | inactive | – |
| C[C@H]1CC[C@]2(C(=O)O[C@@H]3O[C@H](CO)[C@@H](O)[C@H](O)[C@H]3O)CC[C@]3(C)C(=CC[C@@H]4[C@@]5(C)CC[C@H](O[C@@H]6OC[C@@H](O)[C@H](O)[C@H]6O)C(C)(C)[C@@H]5CC[C@]43C)[C@@H]2[C@]1(C)O | – | – | inactive | inactive | – |
| CC(=O)O[C@H]1CC[C@]2(C)[C@H]3CC=C4[C@@H]5[C@@H](C)[C@H](C)CC[C@]5(CO)CC[C@@]4(C)[C@]3(C)CC[C@H]2C1(C)C | 0.46 | – | – | inactive | – |
| COC(=O)[C@]12CC[C@@H](C)[C@H](C)[C@H]1C1=CC[C@@H]3[C@@]4(C)CC[C@H](O)C(C)(C)[C@@H]4CC[C@@]3(C)[C@]1(COC(=O)/C=C/c1ccc(O)c(O)c1)CC2 | 0.058 | 0.08 | – | – | Activity (Erythrocyte [3]): <18.3%; Activity (Erythrocyte [4]): <18.3%; Activity (Erythrocyte [5]): <18.3%; Activity (Erythrocyte [6]): inactive; Activity (Erythrocyte [7]): inactive; Activity (Erythrocyte [8]): inactive |
| C[C@@H]1CC[C@]2(C(=O)O)CC[C@]3(C)C(=CC[C@@H]4[C@@]5(C)CC[C@H](O)C(C)(C)[C@@H]5CC[C@]43C)[C@@H]2[C@]1(C)O [POMOLIC ACID] | 0.101 | 0.157 | – | – | – |
| C=C1[C@@H](O)[C@H](O)C[C@]2(C)[C@H]3CC=C4[C@@H]5[C@@H](C)[C@H](C)CC[C@]5(C(=O)O)CC[C@@]4(C)[C@]3(C)CC[C@@H]12 [ILEKUDINOL B] | 0.123 | 0.586 | – | – | – |
| C[C@H]1CC[C@]2(C(=O)O[C@@H]3O[C@H](CO)[C@@H](O)[C@H](O)[C@H]3O)CC[C@]3(C)C(=CC[C@@H]4[C@@]5(C)CC[C@H](O[C@@H]6OC[C@H](O)[C@H](O)[C@H]6O)C(C)(C)[C@@H]5CC[C@]43C)[C@@H]2[C@]1(C)O | – | – | inactive | inactive | – |
| C[C@H]1CC[C@]2(C(=O)O)CC[C@]3(C)C(=CC[C@@H]4[C@@]5(C)CC[C@H](O)C(C)(C)[C@@H]5CC[C@]43C)[C@@H]2[C@]1(C)O | 0.237 | 0.579 | – | – | – |
| C[C@@H]1CC[C@]2(C(=O)O[C@@H]3O[C@H](CO)[C@@H](O)[C@H](O)[C@H]3O)CC[C@]3(C)C(=CC[C@@H]4[C@@]5(C)CC[C@H](O[C@@H]6OC[C@H](O)[C@H](O)[C@H]6O)C(C)(C)[C@@H]5CC[C@]43C)[C@@H]2[C@]1(C)O | – | – | inactive | inactive | – |
| C[C@H]1[C@H](C)CC[C@@]23CC[C@]4(C)[C@@](OC2=O)([C@H]13)[C@H]1O[C@H]1[C@@H]1[C@@]2(C)CC(=O)[C@H](O)[C@@H](C)[C@@H]2[C@H](O)C[C@]14C | 0.592 | 0.734 | – | – | – |
| C[C@@H]1CC[C@]2(C(=O)O[C@@H]3O[C@H](CO)[C@@H](O)[C@H](O)[C@H]3O)CC[C@]3(C)C(=CC[C@@H]4[C@@]5(C)CC[C@H](O[C@@H]6OC[C@@H](O)[C@H](O)[C@H]6O)C(C)(C)[C@@H]5CC[C@]43C)[C@@H]2[C@]1(C)O | – | – | inactive | inactive | – |
| C=C1[C@@H](O)[C@H](O)C[C@]2(C)[C@H]3[C@@H]4O[C@@H]4[C@]45OC(=O)[C@@]6(CC[C@@H](C)[C@H](C)[C@H]64)CC[C@@]5(C)[C@]3(C)CC[C@@H]12 [ULMOIDOL] | 0.429 | 0.794 | – | – | – |
| COC(=O)[C@]12CC[C@@H](C)[C@@](C)(O)[C@H]1C1=CC[C@@H]3[C@@]4(C)CC[C@H](O)C(C)(C)[C@@H]4CC[C@@]3(C)[C@]1(COC(=O)/C=C/c1ccc(O)c(OC)c1)CC2 | 0.131 | 0.319 | – | – | – |
| COC(=O)[C@H]1O[C@@H](O[C@H]2CC[C@]3(C)[C@H]4CC=C5[C@H]6[C@](C(=O)O)(CC[C@H](C)[C@@]6(C)O)CC[C@@]5(C)[C@]4(C)CC[C@H]3C2(C)C)[C@H](O)[C@@H](O)[C@@H]1O | – | – | inactive | inactive | – |
